Test results as given in patent US9751896B1, “Asymmetric 7-N isatin dimer Schiff base compounds with antitumor activities and a method of preparing the same” (SHAANXI UNIVERSITY OF SCIENCE AND TECHNOLOGY, priority 2016, dated 2017).

Key:
[1] = system: human hepatoma cells (HepG2); test: Tumor cell proliferation inhibition test (MTT), HepG2; format: cell-based; conditions: 48 hours treatment, read-out: Half Inhibitory Concentration IC50 HepG2
Experimental: (§1) The compounds of the present invention were subjected to tumor cell proliferation inhibition test, and conventional MTT method was used.
(§2) Cell lines: human hepatoma cells (HepG2), human lung cancer cells (A-549), human gastric cancer cells (SGC-7901). The culture medium was DMEM+15% NBS+double antibody.
(§3) Sample solution preparation: after dissolving with DMSO (Merck), PBS (−) was added to obtain 100 μmol/L solution or homogeneous suspension. The solution was diluted with PBS (−) in DMSO to a final concentration of 0.1, 1, 10, 20, 40, 60, 80, 100 μmol/L.
(§4) Antitumor drug cytarabine (Ara-C) was used as control solution, prepared under the same condition.
(§5) Cell culture: adherent growth Tumor cells were cultured in 1640 medium containing 10% inactivated neonatal bovine serum and penicillin, streptomycin (1 million U/L), placed in carbon dioxide incubator at 37° C., 5% CO2, and saturated humidity. Cells were treated serially passaged 2-3 times. The first culture was washed with PBS 2 times, and digested with trypsin. Fresh culture medium was added evenly, cells were adjusted to a appropriate concentration and transferred into a new culture flask. Cell in an exponential phase were chosen for the tests.
(§6) MTT Assay for Cell Viability and IC50 Determination:
(§7) Experimental Principle: Living cells mitochondria in the dehydrogenase can reduce yellow MTT to water-insoluble blue-violet product MT (MTT formazan), deposited in the cells. The amount of production is proportional to the number of living cells. […] DMSO can dissolve blue violet crystals, and the color depth is proportional to the amount contained, so the absorbance measured by the microplate reader can reflect the cell viability.
(§8) Methods: The exponential phase cells were digested and counted and seeded in 96-well plates at a density of 2×10^4/mL at 100 μl per well. After 24 hours of incubation, the cells to be tested were treated with 0.1, 1, 10, 20, 40, 60, 80, 100 μmol/L of the compounds. Each experimental group had 5 wells in each concentration, and the culture medium containing 0.4% DMSO was used as control. After 48 hours, the supernatant was discarded, and 100 μl of MTT ((2-(4,5-dimethyl-2-thiazolyl)-3,5-diphenyl-2H-[…]) (1 mg/mL) was added to each well. After another 4 hours, the supernatant was discarded, and 100 μl of DMSO was added to each well. After mixing, the absorbance was measured at 570 nm using a microplate reader. An IC50 calculation software was used to determine the half inhibitory concentration (IC50).

[2] = system: human lung cancer cells (A-549); test: Tumor cell proliferation inhibition test (MTT), A-549; format: cell-based; conditions: A549 cells, 48 hours treatment, read-out: Half Inhibitory Concentration IC50 A549
Experimental: as §1, §2, §3, §4, §5, §6, §7, §8

[3] = system: human gastric cancer cells (SGC-7901); test: Tumor cell proliferation inhibition test (MTT), SGC-7901; format: cell-based; conditions: SGC-7901 cells, 48 hours treatment, read-out: Half Inhibitory Concentration IC50 SGC-7901
Experimental: as §1, §2, §3, §4, §5, §6, §7, §8

Compound | IC50 [1] | IC50 [2] | IC50 [3] | melting point
Nc1ccn([C@@H]2O[C@H](CO)[C@@H](O)[C@@H]2O)c(=O)n1 [Ara-C, cytarabine, reference compound] | 18.3 ± 0.28 µM | 14.9 ± 0.64 µM | 18.2 ± 0.39 µM | 
Cc1cnc2c(c1)/C(=N/N=C1\C(=O)Nc3ncc(Cl)cc31)C(=O)N2 [Compound 1] | > 100 µM | 55.8 ± 2.67 µM | 42.3 ± 1.89 µM | 174.5 °C
CN1C(=O)/C(=N\N=C2/C(=O)N(Cc3ccccc3)c3ncccc32)c2cccnc21 [Compound 4] | > 100 µM | 85.8 ± 2.96 µM | > 100 µM | 214.3 °C
CCN1C(=O)/C(=N\N=C2/C(=O)N(C)c3ncccc32)c2cccnc21 [Compound 5] | 28.7 ± 0.4 µM |  | 46.9 ± 0.85 µM | 195.6 °C
CCN1C(=O)/C(=N\N=C2/C(=O)N(C(C)C)c3ncccc32)c2cccnc21 [Compound 6] | > 100 µM | > 100 µM | > 100 µM | 191.9 °C
CC(C)N1C(=O)/C(=N\N=C2/C(=O)N(C)c3ncccc32)c2cccnc21 [Compound 7] | 98.6 ± 3.23 µM | > 100 µM | > 100 µM | 182.5 °C
